# Data: patent US11046699B2, “Pyrazolo-pyrimidin-amino-cycloalkyl compounds and their therapeutic uses” (RAPT THERAPEUTICS, INC., priority 2018, dated 2021)
# Like-named read-outs stand apart in the source and are kept apart here.
# Molecular target: GCN2 (Homo sapiens, UniProt Q9P2K8)
# Test: GCN2 enzymatic endpoint assay: phosphorylation of GFP-eIF2α measured by TR-FRET (Lanthascreen)
# Assay type: biochemical
# Summary of the method: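 2 μM ATP, 80 nM GFP-eIF2α, RT, 90 min; EDTA stop. Tb-anti-phospho antibody TR-FRET read, 520/495 nm ratio.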
# [1] = tested as described in Example 77, compound and/or hydrochloride, dihydrochloride or trifluoroacetic acid salt, read-out: IC 50 Activity
# [2] = GCN2 biochemical IC50, 4 nM GCN2, 2 μM ATP, 80 nM GFP-eIF2α, 90 min RT, read-out: GCN2 activity
# GCN2, sequence (Q9P2K8 whole entry): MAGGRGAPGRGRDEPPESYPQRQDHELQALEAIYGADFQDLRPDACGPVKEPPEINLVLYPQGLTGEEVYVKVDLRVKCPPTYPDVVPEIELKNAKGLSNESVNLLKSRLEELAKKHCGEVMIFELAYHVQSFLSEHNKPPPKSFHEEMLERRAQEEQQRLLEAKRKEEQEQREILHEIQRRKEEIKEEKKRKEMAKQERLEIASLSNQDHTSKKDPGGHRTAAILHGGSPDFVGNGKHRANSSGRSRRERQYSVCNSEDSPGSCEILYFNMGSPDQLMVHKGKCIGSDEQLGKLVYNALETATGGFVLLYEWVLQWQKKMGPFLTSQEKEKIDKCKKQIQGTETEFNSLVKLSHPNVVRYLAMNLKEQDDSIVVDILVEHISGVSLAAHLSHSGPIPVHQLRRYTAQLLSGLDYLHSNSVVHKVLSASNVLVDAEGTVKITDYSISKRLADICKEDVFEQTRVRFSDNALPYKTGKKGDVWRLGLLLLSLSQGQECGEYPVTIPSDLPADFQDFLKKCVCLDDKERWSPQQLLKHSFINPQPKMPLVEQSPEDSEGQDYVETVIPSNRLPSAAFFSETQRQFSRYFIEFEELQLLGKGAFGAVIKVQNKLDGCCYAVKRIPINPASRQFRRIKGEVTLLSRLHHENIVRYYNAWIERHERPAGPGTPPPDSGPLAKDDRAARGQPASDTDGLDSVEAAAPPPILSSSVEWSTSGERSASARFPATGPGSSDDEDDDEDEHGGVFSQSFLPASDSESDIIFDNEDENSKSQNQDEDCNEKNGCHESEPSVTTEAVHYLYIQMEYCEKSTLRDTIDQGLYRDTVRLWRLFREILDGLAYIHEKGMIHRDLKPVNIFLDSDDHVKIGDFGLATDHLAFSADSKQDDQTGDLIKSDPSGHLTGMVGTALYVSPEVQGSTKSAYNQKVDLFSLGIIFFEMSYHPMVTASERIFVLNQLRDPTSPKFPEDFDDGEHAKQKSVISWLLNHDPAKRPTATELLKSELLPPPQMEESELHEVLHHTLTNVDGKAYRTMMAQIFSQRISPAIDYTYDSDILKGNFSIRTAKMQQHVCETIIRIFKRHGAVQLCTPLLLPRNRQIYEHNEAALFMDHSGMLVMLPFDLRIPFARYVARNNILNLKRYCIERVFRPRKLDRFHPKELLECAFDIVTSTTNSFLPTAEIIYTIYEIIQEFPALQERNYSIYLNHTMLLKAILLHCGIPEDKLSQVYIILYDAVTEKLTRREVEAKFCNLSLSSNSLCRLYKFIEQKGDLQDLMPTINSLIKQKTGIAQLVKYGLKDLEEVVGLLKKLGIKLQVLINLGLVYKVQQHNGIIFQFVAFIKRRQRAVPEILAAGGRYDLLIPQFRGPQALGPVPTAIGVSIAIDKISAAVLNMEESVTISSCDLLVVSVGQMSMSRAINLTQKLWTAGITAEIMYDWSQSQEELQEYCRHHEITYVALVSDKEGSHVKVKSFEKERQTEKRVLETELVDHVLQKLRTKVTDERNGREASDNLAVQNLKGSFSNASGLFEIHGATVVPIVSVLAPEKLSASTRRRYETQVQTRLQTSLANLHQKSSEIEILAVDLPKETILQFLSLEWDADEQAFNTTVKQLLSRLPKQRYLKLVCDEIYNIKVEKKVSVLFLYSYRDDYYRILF
Structure (SMILES),IC50 [1],IC50 [2]
"N#Cc1cc(-n2nc(Br)c3cnc(N[C@@H]4CC[C@@H](C(=O)N5CC(N6CCC(F)(F)C6)C5)C4)nc32)cc2cccnc12 [6-(3-bromo-6-(((1R,3R)-3-(3-(3,3-difluoro-pyrrolidin-1-yl)azetidine-1-carbonyl)cyclo-pentyl)amino)-1H-pyrazolo[3,4-d]pyrimidin-1-yl)quinoline-8-carbonitrile]",25 to 200 nM,–
"CNC(=O)[C@]1(C)CC[C@@H](Nc2ncc3c(Br)nn(-c4ccc(-c5ncco5)c(NC(=O)[C@@H]5CCNC5)c4)c3n2)C1 [(3R)-N-[5-[3-bromo-6-[[(1R,3R)-3-methyl-3-(methylcarbamoyl)cyclopentyl]amino]pyrazolo[3,4-d]pyrimidin-1-yl]-2-oxazol-2-yl-phenyl]pyrrolidine-3-carboxamide]",< 25 nM,–
"CC1(C(=O)N2CCC(F)(C#N)C2)CC[C@@H](Nc2ncc3c(Br)nn(-c4cc(F)c5ncccc5c4)c3n2)C1 (stereo partly drawn) [1-[(3R)-3-[[3-bromo-1-(8-fluoro-6-quinolyl)pyrazolo[3,4-d]pyrimidin-6-yl]amino]-1-methyl-cyclopentanecarbonyl]-3-fluoro-pyrrolidine-3-carbonitrile]",25 to 200 nM,–
"CNC(=O)[C@]1(C)CC[C@@H](Nc2ncc3c(Br)nn(-c4ccc(-c5nnc(C(C)C)o5)cc4)c3n2)C1 [(1R,3R)-3-[[3-bromo-1-[4-(5-isopropyl-1,3,4-oxadiazol-2-yl)phenyl]pyrazolo[3,4-d]pyrimidin-6-yl]amino]-N,1-dimethyl-cyclopentanecarboxamide]",25 to 200 nM,–
"COCCNC(=O)[C@@H]1CCC[C@@H](Nc2ncc3c(Br)nn(-c4ccc5ncccc5c4)c3n2)C1 [Example 20, (1R,3R)-3-((3-bromo-1-(quinolin-6-yl)-1H-pyrazolo[3,4-d]pyrimidin-6-yl)amino)-N-(2-methoxyethyl)cyclohexane-1-carboxamide]",–,500 to 1000 nM
"CNC(=O)C1(C)CC[C@@H](Nc2ncc3c(Br)nn(-c4ccc5nc(C)cc(Cl)c5c4)c3n2)C1 (stereo partly drawn) [(3R)-3-[[3-bromo-1-(4-chloro-2-methyl-6-quinolyl)pyrazolo[3,4-d]pyrimidin-6-yl]amino]-N,1-dimethyl-cyclopentane-carboxamide]",25 to 200 nM,–
"CC[C@@H](N)c1cc(-n2nc(Br)c3cnc(N[C@@H]4CC[C@@](C)(C(=O)NC)C4)nc32)cc2nccnc12 [Example 66, (1R,3R)-3-((1-(8-((R)-1-aminopropyl)quinoxalin-6-yl)-3-bromo-1H-pyrazolo[3,4-d]pyrimidin-6-yl)amino)-N,1-dimethylcyclopentane-1-carboxamide]",–,< 25 nM
"CO[C@@H]1CC[C@@H](Nc2ncc3c(Br)nn(-c4cc(F)c5ncccc5c4)c3n2)C1 [3-bromo-1-(8-fluoro-6-quinolyl)-N-[(1R,3R)-3-methoxycyclopentyl]pyrazolo[3,4-d] pyrimidin-6-amine]",25 to 200 nM,–
"CNC(=O)[C@]1(C)CC[C@@H](Nc2ncc3c(Br)nn(-c4cc(Cl)cc(CN)c4)c3n2)C1 [Example 52, (1R,3R)-3-((1-(3-(aminomethyl)-5-chlorophenyl)-3-bromo-1H-pyrazolo[3,4-d]pyrimidin-6-yl)amino)-N,1-dimethylcyclopentane-1-carboxamide; 2,2,2-trifluoroacetic acid]",–,25 to 200 nM
"O=C([C@@H]1CC[C@@H](Nc2ncc3c(Br)nn(-c4ccc5ncccc5c4)c3n2)C1)N1CCC(O)(C(F)(F)F)CC1 [((1R,3R)-3-((3-bromo-1-(quinolin-6-yl)-1H-pyrazolo[3,4-d]pyrimidin-6-yl)amino)cyclo-pentyl)(4-hydroxy-4-(trifluoromethyl)piperidin-1-yl)methanone]",200 to 500 nM,–
"CNC(=O)[C@]1(C)CC[C@@H](Nc2ncc3c(Br)nn(-c4ccc(-c5nnc(C(C)CO)o5)cc4)c3n2)C1 (stereo partly drawn) [(1R,3R)-3-[[3-bromo-1-[4-[5-(2-hydroxy-1-methyl-ethyl)-1,3,4-oxadiazol-2-yl]phenyl]pyrazolo[3,4-d]pyrimidin-6-yl]amino]-N,1-dimethyl-cyclopentane-carboxamide]",< 25 nM,–
"CNC(=O)[C@]1(C)CC[C@@H](Nc2ncc3c(Br)nn(-c4cc([C@H](C)CO)c5ncccc5c4)c3n2)C1 [(1R,3R)-3-[[3-bromo-1-[8-[(1S)-2-hydroxy-1-methyl-ethyl]-6-quinolyl]pyrazolo[3,4-d]pyrimidin-6-yl]amino]-N,1-dimethyl-cyclopentanecarboxamide]",< 25 nM,–
CNC(=O)[C@]1(C)CC[C@@H](Nc2ncc3c(Br)nn(-c4cc(Cl)cc(CCC#N)c4)c3n2)C1,25 to 200 nM,–
"CNC(=O)[C@]1(C)CC[C@@H](Nc2ncc3c(Br)nn(-c4ccc5nc(N6CCC6)ncc5c4)c3n2)C1 [Example 73, (1R,3R)-3-((1-(2-(azetidin-1-yl)quinazolin-6-yl)-3-bromo-1H-pyrazolo[3,4-d]pyrimidin-6-yl)amino)-N,1-dimethylcyclopentane-1-carboxamide]",–,25 to 200 nM
CNC(=O)[C@]1(C)CC[C@@H](Nc2ncc3c(Br)nn(-c4ccc5c(c4)C(N)CO5)c3n2)C1 (stereo partly shown),25 to 200 nM,–
"CNC(=O)[C@@H]1CC[C@@H](Nc2ncc3c(Br)nn(-c4cc(OC(F)(F)F)c5ncccc5c4)c3n2)C1 [(1R,3R)-3-((3-bromo-1-(8-(trifluoro-methoxy)quinolin-6-yl)-1H-pyrazolo [3,4-d]pyrimidin-6-yl)amino)-N-methylcyclopentane-1-carboxamide]",25 to 200 nM,–

Structure (SMILES),IC50 [1],IC50 [2]
CNC(=O)[C@]1(C)CC[C@@H](Nc2ncc3c(Br)nn(-c4ccc(-c5nncs5)cc4)c3n2)C1,25 to 200 nM,–
"CNC(=O)[C@]1(C)CC[C@@H](Nc2ncc3c(Br)nn(-c4ccc(-c5nnc(C)o5)c(F)c4)c3n2)C1 [(1R,3R)-3-[[3-bromo-1-[3-fluoro-4-(5-methyl-1,3,4-oxadiazol-2-yl)phenyl]pyrazolo[3,4-d]pyrimidin-6-yl]amino]-N,1-dimethyl-cyclopentanecarboxamide]",25 to 200 nM,–
"CN=S(C)(=O)CCNC(=O)[C@@H]1CC[C@@H](Nc2ncc3c(Br)nn(-c4cc(F)c5ncccc5c4)c3n2)C1 (stereo partly drawn) [(1R,3R)-3-((3-bromo-1-(8-fluoroquinolin-6-yl)-1H-pyrazolo[3,4-d]pyrimidin-6-yl)amino)-N-(2-(N,S-dimethylsulfonimidoyl)ethyl)cyclopentane-1-carboxamide]",< 25 nM,–
"CNC(=O)[C@@]1(C)CC[C@@H](Nc2ncc3c(Br)nn(-c4ccc5ncccc5c4)c3n2)C1 [(1S,3R)-3-((3-bromo-1-(quinolin-6-yl)-1H-pyrazolo[3,4-d]pyrimidin-6-yl)amino)-N,1-dimethylcyclopentane-1-carboxamide]",200 to 500 nM,–
"CS(=O)(=O)N[C@@H]1CCC(Nc2ncc3c(Br)nn(-c4ccc5ncccc5c4)c3n2)C1 (mixture of isomers) [Example 15, N-(trans-3-((3-bromo-1-(quinolin-6-yl)-1H-pyrazolo[3,4-d]pyrimidin-6-yl)amino)cyclopentyl)methanesulfonamide]",–,200 to 500 nM
"CNC(=O)[C@]1(C)CC[C@@H](Nc2ncc3c(Br)nn(-c4cc5c(c(OCC(F)F)c4)N(C)C(=O)CO5)c3n2)C1 [(1R,3R)-3-[[3-bromo-1-[5-(2,2-difluoro-ethoxy)-4-methyl-3-oxo-1,4-benzoxazin-7-yl]pyrazolo[3,4-d]pyrimidin-6-yl]amino]-N,1-dimethyl-cyclopentanecarboxamide]",< 25 nM,–
"N#CC1CN(C(=O)[C@@H]2CC[C@@H](Nc3ncc4c(Br)nn(-c5cc(F)c6ncccc6c5)c4n3)C2)C1 [1-[(1R,3R)-3-[[3-bromo-1-(8-fluoro-6-quinolyl)pyrazolo[3,4-d]pyrimidin-6-yl]amino]cyclopentanecarbonyl]azetidine-3-carbonitrile]",< 25 nM,–
"COCCO[C@@H]1CCN(C(=O)[C@@H]2CC[C@@H](Nc3ncc4c(Br)nn(-c5ccc6ncccc6c5)c4n3)C2)C1 [((1R,3R)-3-((3-bromo-1-(quinolin-6-yl)-1H-pyrazolo[3,4-d]pyrimidin-6-yl)amino)cyclopentyl)((R)-3-(2-methoxyethoxy)pyrrolidin-1-yl)methanone]",25 to 200 nM,–
"Cc1nnc(-c2ccc(-n3nc(Br)c4cnc(NC5CCOC5)nc43)cc2)s1 (stereo not shown) [3-bromo-1-[4-(5-methyl-1,3,4-thiadiazol-2-yl)phenyl]-N-tetrahydrofuran-3-yl-pyrazolo [3,4-d]pyrimidin-6-amine]",25 to 200 nM,–
"CC[C@@]1(C(=O)NC)CC[C@@H](Nc2ncc3c(Br)nn(-c4cc(F)c5ncccc5c4)c3n2)C1 [(1R,3R)-3-[[3-bromo-1-(8-fluoro-6-quinolyl)pyrazolo[3,4-d]pyrimidin-6-yl]amino]-1-ethyl-N-methyl-cyclopentanecarboxamide]",< 25 nM,–
"CNC(=O)[C@]1(C)CC[C@@H](Nc2ncc3c(Br)nn(-c4cc(Cl)cc(C5COC(=O)N5C)c4)c3n2)C1 (stereo partly drawn) [(1R,3R)-3-[[3-bromo-1-[3-chloro-5-(3-methyl-2-oxo-oxazolidin-4-yl)phenyl]pyrazolo[3,4-d]pyrimidin-6-yl]amino]-N,1-dimethyl-cyclopentanecarboxamide]",25 to 200 nM,–
"CNC(=O)[C@]1(C)CC[C@@H](Nc2ncc3c(Br)nn(-c4ccc5c(c4)CNC(=O)C5)c3n2)C1 [(1R,3R)-3-[[3-bromo-1-(3-oxo-2,4-dihydro-1H-isoquinolin-7-yl)pyrazolo [3,4-d]pyrimidin-6-yl]amino]-N,1-dimethyl-cyclopentanecarboxamide]",25 to 200 nM,–
"CNC(=O)[C@]1(C)CC[C@@H](Nc2ncc3c(Br)nn(-c4cc(Cl)cc(OCC5(F)CNC5)c4)c3n2)C1 [(1R,3R)-3-[[3-bromo-1-[3-chloro-5-[(3-fluoroazetidin-3-yl)methoxy]phenyl]pyrazolo[3,4-d]pyrimidin-6-yl]amino]-N,1-dimethyl-cyclopentanecarboxamide]",< 25 nM,–
"CNS(=O)(=O)[C@H]1CC[C@@H](Nc2ncc3c(Br)nn(-c4ccc5ncccc5c4)c3n2)C1 [(1S,3R)-3-((3-bromo-1-(quinolin-6-yl)-1H-pyrazolo[3,4-d]pyrimidin-6-yl)amino)-N-methylcyclopentane-1-sulfonamide]",500 to 1000 nM,–
O=C(N[C@H]1CC[C@](O)(C(F)(F)F)CC1)[C@@H]1CC[C@@H](Nc2ncc3c(Br)nn(-c4ccc5ncccc5c4)c3n2)C1,500 to 1000 nM,–
